Consider 3 compounds from ChEMBL document CHEMBL1150524, “Two novel, potent and selective histamine H3 receptor agonists” (Bioorg Med Chem Lett, 1992).

What all share (assay type): functional, tissue-based
Test [1] has as its target Histamine H3 receptor (Cavia porcellus, UniProt Q9JI35). Put plainly: Histamine H3 receptor agonist activity was assessed by the inhibition of the electrically evoked twitch response of the guinea-pig ileum.
Test [2] has as its target Histamine H1 receptor (Cavia porcellus) (UniProt P31389). Nature of the test: Effect on histamine H1 receptor of the guinea-pig ileum, at 10e-5 M concentration; not significant.
In test [3] the target is Histamine H2 receptor (Cavia porcellus) (UniProt P47747). Nature of the test: Effect on histamine H2 receptor of the guinea-pig atrium, at 10e-5 M concentration; not significant. The following applies: Cardiac atrium.

Activity calls are given as the source filed them. No cut-off for these calls is given here.

Sequence of Histamine H2 receptor (Cavia porcellus) (P47747 whole entry): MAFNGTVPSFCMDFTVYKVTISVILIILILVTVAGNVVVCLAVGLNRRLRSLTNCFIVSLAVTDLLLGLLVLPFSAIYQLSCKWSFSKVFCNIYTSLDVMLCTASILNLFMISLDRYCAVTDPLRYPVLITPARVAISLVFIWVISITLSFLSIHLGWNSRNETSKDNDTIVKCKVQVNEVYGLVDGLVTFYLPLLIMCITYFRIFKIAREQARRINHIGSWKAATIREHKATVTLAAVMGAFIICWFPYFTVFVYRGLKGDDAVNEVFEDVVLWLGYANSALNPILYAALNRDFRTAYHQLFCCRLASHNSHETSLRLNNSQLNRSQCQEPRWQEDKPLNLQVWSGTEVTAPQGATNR
Sequence of Histamine H3 receptor (Q9JI35 whole entry): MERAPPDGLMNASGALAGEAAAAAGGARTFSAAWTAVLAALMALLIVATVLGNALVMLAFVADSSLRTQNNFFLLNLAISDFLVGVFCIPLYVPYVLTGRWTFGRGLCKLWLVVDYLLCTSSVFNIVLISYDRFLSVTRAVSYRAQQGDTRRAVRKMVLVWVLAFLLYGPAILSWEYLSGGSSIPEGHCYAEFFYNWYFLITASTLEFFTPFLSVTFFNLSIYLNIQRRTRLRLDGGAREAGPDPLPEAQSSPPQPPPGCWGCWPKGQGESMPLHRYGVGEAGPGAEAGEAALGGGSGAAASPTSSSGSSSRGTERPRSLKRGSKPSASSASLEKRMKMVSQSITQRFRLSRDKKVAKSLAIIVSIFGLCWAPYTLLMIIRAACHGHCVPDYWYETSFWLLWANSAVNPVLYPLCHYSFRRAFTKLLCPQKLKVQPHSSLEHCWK
Sequence of Histamine H1 receptor (Cavia porcellus) (P31389 whole entry): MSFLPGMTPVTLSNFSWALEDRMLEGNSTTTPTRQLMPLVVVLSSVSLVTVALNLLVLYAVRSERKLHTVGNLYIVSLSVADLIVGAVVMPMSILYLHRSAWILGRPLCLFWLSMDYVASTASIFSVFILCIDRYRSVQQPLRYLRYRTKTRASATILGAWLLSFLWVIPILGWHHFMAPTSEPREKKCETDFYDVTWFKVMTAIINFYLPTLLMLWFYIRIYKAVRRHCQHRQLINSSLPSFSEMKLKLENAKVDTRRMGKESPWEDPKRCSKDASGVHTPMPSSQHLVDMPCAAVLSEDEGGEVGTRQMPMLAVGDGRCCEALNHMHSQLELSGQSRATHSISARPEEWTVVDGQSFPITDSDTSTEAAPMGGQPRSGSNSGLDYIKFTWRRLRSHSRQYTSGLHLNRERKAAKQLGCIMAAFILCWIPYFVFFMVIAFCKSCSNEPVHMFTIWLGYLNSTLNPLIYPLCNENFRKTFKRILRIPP

In general, IC50 refers to the concentration at which inhibition is half-maximal. In test [1], `N=C(N)SCCc1cnc[nH]1` [IMETIT] returned an IC50 of 4.6 nM.

For the compound `N=C(N)CCCc1c[nH]cn1`, the outcome in test [2] and in test [3] was inactive. Also, in test [1], the half-inhibitory concentration (IC50) came to 1.1 nM.

Regarding `N=C(N)SCCc1c[nH]cn1`, the outcome in test [2] and in test [3] was inactive.
